Experimental data taken from patent US20220274947A1, “NOVEL HETEROARYL-TRIAZOLE COMPOUNDS AS PESTICIDES” (Bayer Aktiengesellschaft, priority 2019, published 2022).

What was measured:
Format in all cases: in vivo
Spodoptera frugiperda = Spodoptera frugiperda spray test; conditions: in Zea mays, 168 h, read-out: activity (mortality)
Protocol: Spodoptera Fruaiperda—Spray Test
Solvent: 78.0 parts by weight acetone • 1.5 parts by weight dimethylformamide Emulsifier: alkylarylpolyglycol ether
(§1) To produce a suitable preparation of active compound, 1 part by weight of active compound is mixed with the stated amount of solvents and is diluted with water, containing an emulsifier concentration of 1000 ppm, to the desired concentration. Further test concentrations are prepared by dilution with emulsifier containing water.
Maize (Zea mays) leaf sections are sprayed with a preparation of the active ingredient of the desired concentration. Once dry, the leaf sections are infested with fall armyworm larvae (Spodoptera frugiperda).
After 7 days mortality in % is determined. 100% means all caterpillars have been killed and 0% means none of the caterpillars have been killed.

Diabrotica balteata = Diabrotica balteata spray test; conditions: 168 h, wheat seeds, larvae, after 7 days, read-out: activity (efficacy: 100% means all seedlings have grown up like in the untreated, uninfected control); for pest or weed control at 32 µg/disc, 100 g/ha: application rate 100 g/ha (=32 μg/well); for pest or weed control at 160 µg/disc, 500 g/ha: application rate 500 g/ha (=160 μg/well)
Protocol: Diabrotica balteata—Spray Test Solvent: 78.0 parts by weight of acetone • • 1.5 parts by weight of dimethylformamide Emulsifier: alkylarylpolyglycol ether
as §1, with “solvent,” for “solvents”, “and the concentrate” for “and”
Soaked wheat seeds (Triticum aestivum) are placed in a multiple well plate filled with agar and some water and are incubated for 1 day to germinate (5 seeds per well). The germinated wheat seeds are sprayed with a test solution containing the desired concentration of the active ingredient. Afterwards each unit is infected with 10-20 larvae of the banded cucumber beetle (Diabrotica balteata).
After 7 days efficacy in % is determined. 100% means all the seedlings have grown up like in the untreated, uninfected control; 0% means none of the seedlings have grown.

Rhipicephalus microplus [1] = assay: Rhipicephalus (Boophilus) microplus in-vitro contact test, larval cattle tick, strain Parkhurst (BOOPMI Cont); conditions: application rate 5 μg/cm^2 (=500 g/ha), tick larvae, after 48 hours, read-out: activity (efficacy: 100% means all larvae are dead or moribund)
Protocol: Rhipicephalus (Boophilus) Microplus—In-Vitro Contact Tests Larval Cattle Tick (Strain Parkhurst, Resistant Against Synthetic Pyrethroids) (BOOPMI Cont)
9 mg compound is solved in 1 mL acetone and diluted with acetone to the desired concentration. 250 μL of the test solution is filled in 25 mL glass test tubes and homogeneously distributed on the inner walls by rotation and tilting on a shaking device (2 h at 30 rpm). With a compound concentration of 900 ppm, an inner surface of 44.7 cm^2 and a homogeneous distribution, a dose of 5 μg/cm^2 is achieved.
After the solvent has evaporated, each test tube is filled with 20-50 cattle tick larvae (Rhipicephalus microplus), closed with a perforated lid and incubated in a horizontal position at 85% relative humidity and 27° C. in an incubator. After 48 hours efficacy is determined. The larvae are patted on the ground of the tubes and negative geotactic behavior is recorded.
An efficacy of 100% means all larvae are dead or moribund; 0% means no larvae are dead or moribund.

Rhipicephalus microplus [2] = assay: Rhipicephalus (Boophilus) microplus injection test (BOOPMI Inj); conditions: 168 h, injection into adult engorged female ticks, egg deposition after 7 days, read-out: activity (efficacy: 100% means all eggs are infertile); for pest or weed control at 0.004 mg: application rate 4 μg/tick; for pest or weed control at 0.02 mg: application rate 20 μg/tick
Protocol: Rhipicephalus (Boophilus) Microplus—Injection Test (BOOPMI Inj)
Solvent: dimethyl sulfoxide
To produce a suitable preparation of active compound, 10 mg of active compound are dissolved in 0.5 mL solvent, and the concentrate is diluted with solvent to the desired concentration.
Five adult engorged female ticks (Rhipicephalus microplus) are injected with 1 μL compound solution into the abdomen. The ticks are transferred into replica plates and incubated in a climate chamber.
After 7 days egg deposition of fertile eggs is monitored. Eggs where fertility is not visible are stored in a climate chamber till hatching after about 42 days. An efficacy of 100% means all eggs are infertile; 0% means all eggs are fertile.

Rhipicephalus sanguineus = Rhipicephalus sanguineus in-vitro contact test, adult brown dog ticks (RHIPSA Cont); conditions: 48 h, application rate 5 μg/cm^2 (=500 g/ha), after 48 hours, read-out: activity (efficacy: 100% means all ticks are dead or moribund)
Protocol: Rhipicephalus sanguineus-In-Vitro Contact Tests with Adult Brown Dog Ticks ([…] Cont) 9 mg compound is solved in 1 mL acetone and diluted with acetone to the desired concentration. 250 μL of the test solution is filled in 25 mL glass test tubes and homogeneously distributed on the inner walls by rotation and tilting on a shaking device (2 h at 30 rpm). […] After 48 hours efficacy is determined. The ticks are patted on the ground of the tubes and are incubated on a heating plate at 45-50° C. for at most 5 minutes. Immotile or uncoordinated moving ticks, which are not able to escape the heat by climbing upwards, are marked as dead or moribund.

CC(NC(=O)c1cc(C(F)(F)F)cc(C(F)(F)F)c1)c1nc(Cl)nn1-c1ccc(C#N)cn1 (racemic) [I-39, 3,5-di(trifluoromethyl)-N-{1-[3-chloro-1-(3-cyano-pyridin-6-yl)-1H-1,2,4-triazol-5-yl]ethyl}-benzamide]
mortality at 100 g/ha (Spodoptera frugiperda): 100%
pest or weed control at 32 µg/disc, 100 g/ha (Diabrotica balteata): 100%
pest or weed control at 5 µg/cm2 (Rhipicephalus microplus [1]): 100%
pest or weed control at 0.004 mg (Rhipicephalus microplus [2]): 100%
pest or weed control at 0.02 mg (Rhipicephalus microplus [2]): 100%

CC(C)Oc1nc([C@H](C)NC(=O)c2cc(Cl)cc(C(F)(F)F)c2)n(-c2ccc(C#N)cn2)n1 [I-16]
mortality at 500 g/ha (Spodoptera frugiperda): 100%
pest or weed control at 160 µg/disc, 500 g/ha (Diabrotica balteata): 100%
pest or weed control at 5 µg/cm2 (Rhipicephalus microplus [1]): 100%
pest or weed control at 0.004 mg (Rhipicephalus microplus [2]): 100%
pest or weed control at 0.02 mg (Rhipicephalus microplus [2]): 100%

CC(C)Oc1nc([C@H](C)NC(=O)c2cc(C(F)(F)F)cc(C(F)(F)F)c2)n(-c2ccc(C#N)cn2)n1 [I-17]
mortality at 100 g/ha (Spodoptera frugiperda): 100%
mortality at 500 g/ha (Spodoptera frugiperda): 100%
pest or weed control at 32 µg/disc, 100 g/ha (Diabrotica balteata): 100%
pest or weed control at 160 µg/disc, 500 g/ha (Diabrotica balteata): 100%
pest or weed control at 5 µg/cm2 (Rhipicephalus microplus [1]): 100%
pest or weed control at 0.004 mg (Rhipicephalus microplus [2]): 100%
pest or weed control at 0.02 mg (Rhipicephalus microplus [2]): 100%

CC(C)Oc1nc([C@H](C)NC(=O)c2cc(Cl)cc(Cl)c2)n(-c2ccc(C#N)cn2)n1 [I-18]
mortality at 500 g/ha (Spodoptera frugiperda): 83%
pest or weed control at 160 µg/disc, 500 g/ha (Diabrotica balteata): 100%
pest or weed control at 5 µg/cm2 (Rhipicephalus microplus [1]): 90%
pest or weed control at 0.02 mg (Rhipicephalus microplus [2]): 100%

CC(C)c1nc([C@H](C)NC(=O)c2cccc(C(F)(F)F)n2)n(-c2ccc(C#N)cn2)n1 [I-22]
pest or weed control at 32 µg/disc, 100 g/ha (Diabrotica balteata): 100%
pest or weed control at 0.004 mg (Rhipicephalus microplus [2]): 80%
pest or weed control at 0.02 mg (Rhipicephalus microplus [2]): 100%

CC(NC(=O)c1cc(Br)cc(C(F)(F)F)c1)c1nc(Cl)nn1-c1ccc(C#N)cn1 (stereo not drawn) [I-40]
pest or weed control at 5 µg/cm2, 500 g/ha (Rhipicephalus sanguineus): 100%
mortality at 100 g/ha (Spodoptera frugiperda): 100%
pest or weed control at 32 µg/disc, 100 g/ha (Diabrotica balteata): 100%
pest or weed control at 5 µg/cm2 (Rhipicephalus microplus [1]): 100%
pest or weed control at 0.004 mg (Rhipicephalus microplus [2]): 100%
pest or weed control at 0.02 mg (Rhipicephalus microplus [2]): 100%

C[C@H](NC(=O)c1cc(Cl)cc(SC(F)(F)F)c1)c1nc(C2CC2)nn1-c1ccc(C#N)cn1 [I-45]
mortality at 100 g/ha (Spodoptera frugiperda): 100%
pest or weed control at 32 µg/disc, 100 g/ha (Diabrotica balteata): 100%
pest or weed control at 5 µg/cm2 (Rhipicephalus microplus [1]): 100%
pest or weed control at 0.004 mg (Rhipicephalus microplus [2]): 100%

CC(NC(=O)c1cc(Cl)cc(C(F)(F)F)c1)c1nc(Br)nn1-c1ccc(C#N)cn1 (stereo not drawn) [I-49]
mortality at 100 g/ha (Spodoptera frugiperda): 100%
pest or weed control at 32 µg/disc, 100 g/ha (Diabrotica balteata): 100%
pest or weed control at 5 µg/cm2 (Rhipicephalus microplus [1]): 100%

CC(NC(=O)c1cc(Cl)nc(C(F)(F)F)c1)c1nc(Cl)nn1-c1ccc(C#N)cn1 (stereo not drawn) [I-52]
mortality at 100 g/ha (Spodoptera frugiperda): 100%
pest or weed control at 32 µg/disc, 100 g/ha (Diabrotica balteata): 100%
pest or weed control at 5 µg/cm2 (Rhipicephalus microplus [1]): 100%

CC(NC(=O)c1cc(Br)cc(Br)c1)c1nc(Br)nn1-c1ccc(C#N)cn1 (stereo not drawn) [I-53]
mortality at 100 g/ha (Spodoptera frugiperda): 100%
pest or weed control at 32 µg/disc, 100 g/ha (Diabrotica balteata): 100%
pest or weed control at 5 µg/cm2 (Rhipicephalus microplus [1]): 100%

CC(NC(=O)c1cc(Br)cc(Br)c1)c1nc(Cl)nn1-c1ccc(C#N)cn1 (stereo not drawn) [I-54]
mortality at 100 g/ha (Spodoptera frugiperda): 100%
pest or weed control at 5 µg/cm2 (Rhipicephalus microplus [1]): 100%

CC(NC(=O)c1cc(Br)cc(OC(F)(F)F)c1)c1nc(Cl)nn1-c1ccc(C#N)cn1 (stereo not drawn) [I-55]
mortality at 100 g/ha (Spodoptera frugiperda): 100%
pest or weed control at 32 µg/disc, 100 g/ha (Diabrotica balteata): 100%
pest or weed control at 5 µg/cm2 (Rhipicephalus microplus [1]): 80%

CC(NC(=O)c1cc(Br)cc(OC(F)(F)F)c1)c1nc(Br)nn1-c1ccc(C#N)cn1 (stereo not drawn) [I-56]
mortality at 100 g/ha (Spodoptera frugiperda): 100%
pest or weed control at 32 µg/disc, 100 g/ha (Diabrotica balteata): 100%
pest or weed control at 5 µg/cm2 (Rhipicephalus microplus [1]): 100%

CC(NC(=O)c1cc(Cl)cc(C(F)(F)F)c1)c1nc(Cl)nn1-c1ccc(C#N)cn1 (stereo not drawn) [I-57]
mortality at 100 g/ha (Spodoptera frugiperda): 100%
pest or weed control at 32 µg/disc, 100 g/ha (Diabrotica balteata): 100%
pest or weed control at 5 µg/cm2 (Rhipicephalus microplus [1]): 100%
